Experimental data taken from patent publication US20260265273A1, “SOLID FORM OF FUSED RING COMPOUND, AND PREPARATION METHOD THEREFOR AND USE THEREOF” (APPLIED PHARMACEUTICAL SCIENCE, INC., priority 2022, published 2026).
In brackets after ≈: the same amount, converted by molar mass.

Assays:
[1] = Solubility Test II (saturated solubility by HPLC); assay type: physicochemical; conditions: for solubility at 24 h: 37 °C, thermodynamic from solid
Description: Chromatographic column: Waters XTERRA RP18, 4.6 mm×150 mm, 3.5 μm or an equivalent chromatographic column. […] The gradient elution conditions are shown in Table 3-2. pH 4.5 acetate buffer: 0.59806 g of sodium acetate trihydrate was added to a 200-mL measuring flask and dissolved in an appropriate amount of water; 1.6 mL of glacial acetic acid was added; and the mixture was diluted to volume to obtain the pH 4.5 acetate buffer. pH 6.8 phosphate buffer: 1.38501 g of potassium dihydrogen phosphate and 0.18086 g of sodium hydroxide were added to the same 200-mL measuring flask; and the mixture was dissolved in water and diluted to volume to obtain the pH 6.8 phosphate buffer. 10.0 mL of each medium was precisely measured, and the media were placed into different 25-mL measuring flasks; an appropriate amount of each test crystal form was added; and the flasks were sealed and oscillated in an oscillator at 37° C. for 24 h to obtain supersaturated solutions. pH 6.8 phosphate buffer sample solution: the supersaturated solution prepared using the pH 6.8 phosphate buffer medium was filtered to obtain the pH 6.8 phosphate buffer sample solution. Water sample solution: the supersaturated solution prepared using the water medium was filtered to obtain the water sample solution. pH 4.5 acetate buffer sample solution: the supersaturated solution prepared using the pH 4.5 acetate buffer medium was filtered, and 1.0 mL of the filtrate was precisely measured and placed into a 10-mL measuring flask; the filtrate was diluted to volume with the pH 4.5 acetate buffer medium, and 1.0 mL of the solution was then precisely measured and placed into the 10-mL measuring flask; and the solution was diluted to volume with methanol to obtain the pH 4.5 acetate buffer sample solution. (ii) Preparation of crystal form A sample solution: pH 6.8 phosphate buffer sample solution: the supersaturated solution prepared using the pH 6.8 phosphate buffer medium was filtered to obtain the pH 6.8 phosphate buffer sample solution. Water sample solution: the supersaturated solution prepared using the water medium was filtered to obtain the water sample solution. pH 4.5 acetate buffer sample solution: the supersaturated solution prepared using the pH 4.5 acetate buffer medium was filtered, and 1.0 mL of the filtrate was precisely measured and placed into a 10-mL measuring flask; the filtrate was diluted to volume with the pH 4.5 acetate buffer medium, and 1.0 mL of the solution was then precisely measured and placed into a 25-mL measuring flask; and the solution was diluted to volume with methanol to obtain the pH 4.5 acetate buffer sample solution. Each medium sample solution was taken, 10 μL of each test sample solution was precisely measured and injected into a liquid chromatograph according to the chromatography conditions described above, and the chromatogram was recorded. The saturated solution degree of each medium was calculated according to the formula below. In the formula: WR=sample weight of control solution, mg; PR=purity factor of control; • AS=peak area of main peak in test solution: DS=dilution factor of test solution; • AR=peak area of main peak in control solution; DR=dilution factor of control solution;

[2] = Solid-state stability test (XRPD, HPLC purity); assay type: physicochemical
[3] = Hygroscopicity test (DVS); assay type: physicochemical
Description: Dynamic vapor sorption (DVS) curves were acquired on a DVS Intrinsic in SMS (Surface Measurement Systems). The relative humidity at 25° C. was corrected with the deliquescence points of LiCl, Mg(NO3)2, and KCl.

[4] = Solubility Test I (stepwise solvent addition); assay type: physicochemical; conditions: thermodynamic from solid, room temperature
Description: About 2 mg of the crystal form A sample prepared according to Example 2 was weighed out and added to an HPLC vial, and the corresponding solvent was added stepwise (50/50/200/700 μL in sequence), followed by oscillation until the solid was completely dissolved. If the sample was still not completely dissolved after 1 mL of the solvent was added, no more solvent was added. The solubility range was calculated based on the mass of the solid sample, the volume of the solvent added, and the observed dissolution results, and the results are summarized in Table 3-1.

[5] = Pharmacokinetic experiment in SD rats; assay type: in vivo; conditions: oral intragastric 10 mg/kg
Description: Six SPF-grade SD rats were prepared and weighed before administration. The dose of administration was calculated based on the weight. […] These administration solutions were orally and intragastrically administered at 10 mg/kg. The rats were weighed before administration, and the dose of administration was calculated based on the weight. 3 rats were used for each crystal form. The administration solutions were orally and intragastrically administered, followed by collection of samples via the jugular vein or other suitable means at the following time points: 0.25 […], and 24 h. About 0.20 mL of each sample was collected, and the plasma was separated out by centrifugation within 2 h. The compound I was detected, and plasma drug concentration-time curves were plotted. The pharmacokinetic parameters were calculated by utilizing WinNonlin according to the plasma concentration data at different time points.

[6] = 25° C./60% RH/uncovered, 2 weeks
[7] = 25° C./60% RH/uncovered, 4 weeks
[8] = 25° C./60% RH/uncovered, 6 weeks
[9] = 40° C./75% RH/uncovered, 2 weeks
[10] = 40° C./75% RH/uncovered, 4 weeks
[11] = 40° C./75% RH/uncovered, 6 weeks

Work on `CCOc1cc(-c2ccc(N3CC4CC(C3)N4Cc3ccc(OC)nc3)nc2)c2c3cn[nH]c3nn2c1` (single isomer, unassigned) [Crystal form A] yielded a Saturated solubility ([1]; pH 4.5 acetate buffer, 37° C., 24 h, listed as crystal form A) of 14545.08 µg/mL, a solubility at 24 h ([1]; pH 6.8 phosphate buffer, pH 6.8, aqueous buffer) of 0.04 µg/mL (≈ 8.06e-05 mM) and a solubility at 24 h ([1]; water) of 0.61 µg/mL (≈ 0.00123 mM). For the same compound, the “Purity (area %)” value [2, 6] was 99.95 area %, the “Relative to initial purity (%)” value [2, 6] was 99.99% and the Crystal form change ([2]; 25° C./60% RH/uncovered, 2 weeks, XRPD) was “No change”. For the same compound, the “Purity (area %)” value [2, 7] was 99.94 area %, the “Relative to initial purity (%)” value [2, 7] was 99.98% and the Crystal form change ([2]; 25° C./60% RH/uncovered, 4 weeks, XRPD) was “No change”. The “Purity (area %)” value [2, 8] was 99.96 area %, the “Relative to initial purity (%)” value [2, 8] was 100.00% and the Crystal form change ([2]; 25° C./60% RH/uncovered, 6 weeks, XRPD) was “No change”. For the same compound, the “Purity (area %)” value [2, 9] was 99.96 area %, the “Relative to initial purity (%)” value [2, 9] was 100.00% and the Crystal form change ([2]; 40° C./75% RH/uncovered, 2 weeks, XRPD) was “No change”. For the same compound, the “Purity (area %)” value [2, 10] was 99.96 area %, the “Relative to initial purity (%)” value [2, 10] was 100.00% and the Crystal form change ([2]; 40° C./75% RH/uncovered, 4 weeks, XRPD) was “No change”. For the same compound, the “Purity (area %)” value [2, 11] was 99.95 area %, the “Relative to initial purity (%)” value [2, 11] was 99.99% and the Crystal form change ([2]; 40° C./75% RH/uncovered, 6 weeks, XRPD) was “No change”. The “Purity (area %)” value ([2]; 60° C./sealed, 24 h) was 99.96 area %, the “Relative to initial purity (%)” value ([2]; 60° C./sealed, 24 h) was 100.00% and the Crystal form change ([2]; 60° C./sealed, 24 h, XRPD) was “No change”. For the same compound, the “HPLC purity under the test conditions” value ([2]; all stability conditions (60° C. sealed 24 h; 25° C./60% RH and 40° C./75% RH uncovered 2, 4, 6 weeks)) was “not significantly reduced”, the “crystal form under the test conditions” value ([2]; all stability conditions, XRPD) was “not changed” and the hygroscopicity evaluation ([3]; DVS at 25° C., 0% RH-95% RH, according to Chinese Pharmacopoeia 2015 Edition) was “slightly hygroscopic”. For the same compound, the hygroscopic weight gain ([3]; DVS, 25° C./80% RH, listed as crystal form A) was “about 1.1%”, the “crystal form after the DVS test (XRPD)” value ([3]; after DVS test) was “not changed” and the solubility ([4]; organic solvent or mixture, solvent 1,4-Dioxane) was 2000 to 6700 µg/mL (≈ 4.03 to 13.5 mM). For the same compound, the solubility ([4]; organic solvent or mixture, solvent 2-MeTHF) was 2400 to 8000 µg/mL (≈ 4.83 to 16.1 mM), the solubility ([4]; organic solvent or mixture, solvent ACN) was under 2200 µg/mL and the solubility ([4]; organic solvent or mixture, solvent Acetone, undissolved sample completely dissolved at 50° C. ~1 h) was under 1900 µg/mL. It also gave a solubility ([4]; organic solvent or mixture, solvent Anisole, undissolved sample completely dissolved at 50° C. ~1 h) of under 2200 µg/mL, a solubility ([4]; organic solvent or mixture, solvent CHCl3) of 20000 to 40000 µg/mL (≈ 40.3 to 80.6 mM) and a solubility ([4]; organic solvent or mixture, solvent CPME, undissolved sample completely dissolved at 50° C. ~1 h) of under 2000 µg/mL. For the same compound, the solubility ([4]; organic solvent or mixture, solvent DCM) was 7700 to 23000 µg/mL (≈ 15.5 to 46.3 mM), the solubility ([4]; organic solvent or mixture, solvent DMSO) was 21000 to 42000 µg/mL (≈ 42.3 to 84.6 mM) and the solubility ([4]; organic solvent or mixture, solvent EtOAc, undissolved sample completely dissolved at 50° C. ~1 h) was under 2200 µg/mL. The solubility ([4]; organic solvent or mixture, solvent EtOH, undissolved sample completely dissolved at 50° C. ~1 h) was under 1900 µg/mL, the solubility ([4]; organic solvent or mixture, solvent IPA, undissolved sample completely dissolved at 50° C. ~1 h) was under 2000 µg/mL and the solubility ([4]; organic solvent or mixture, solvent IPAC) was under 2200 µg/mL. The solubility ([4]; organic solvent or mixture, solvent MIBK) was under 2200 µg/mL, the solubility ([4]; organic solvent or mixture, solvent MTBE) was under 2200 µg/mL and the solubility ([4]; organic solvent or mixture, solvent MeOH, undissolved sample completely dissolved at 50° C. ~1 h) was under 2100 µg/mL. The solubility ([4]; organic solvent or mixture, solvent THE) was 1900 to 6300 µg/mL (≈ 3.83 to 12.7 mM), the solubility ([4]; organic solvent or mixture, solvent Toluene) was under 2000 µg/mL and the solubility ([4]; organic solvent or mixture, solvent n-Heptane) was under 2000 µg/mL. For the same compound, the solubility ([4]; water, solvent H2O) was under 2300 µg/mL, the AUC(0-t) ([5]; SD, rat, plasma, po, 10 mg/kg, 1 mg/mL in 5% DMSO in normal saline, compound I in plasma, 0.25-24 h, read-out: AUC(0-t)) was 19100 ng·h/mL and the in vivo absorption ([5]; comparison of crystal forms) was “significantly superior to that of the crystal form B”.
